Source: patent US20250051286A1, “SMALL MOLECULE INHIBITORS OF PR3 AND HNE AND USES THEREOF” (ORIXA THERAPEUTICS LLC, priority 2021, published 2025)
No end group written: not given here.

Key:
[1] = Treatment of Granulomatosis with Polyangiitis patient (Example 6); type: in vivo, human; conditions: GPA patient; orally 50 mg once per day; within one week
Protocol: In this example, a patient complains of several symptoms including sinus pain, cough, fever, joint aches, blood in urine, and hearing loss. A physician diagnosis them with GPA after analyzing diagnostic markers.
The treating physician anticipates further complications such as acute respiratory distress syndrome (ARDS) and (multiple) organ failure. To prevent this, the treating physician administers a compound of Formula DCT-5A to the patient. The patient is administered the drug orally (i.e., 50 mg, once per day). Within one week, the signs/symptoms of AATD are resolved by about 90% and the patient appears in good health. The patient resumes the treatment and is periodically monitored for changes in their condition.

[2] = Treatment of severe inflammation, post-surgery patient (Example 5); type: in vivo, human; conditions: intravenously 5 mcg/minute for 1 hour, second dose after 24 hours; within two days
Protocol: In this example, a patient is recovering from surgery following a traumatic vehicle accident. The treating physician anticipates further complications such as acute respiratory distress syndrome (ARDS) and (multiple) organ failure. To prevent this, the treating physician administers a compound of Formula DCT-5A to the patient. The patient is administered the drug intravenously (i.e., 5 mcg/minute for 1 hour). The patient is administered a second dose after 24 hours. […] The patient resumes the treatment and is periodically monitored for changes in their condition.

[3] = Treatment of PR3 positive ulcerative colitis patient (Example 7); type: in vivo, human; conditions: intravenously 5 mcg/minute for 1 hour, second dose after 24 hours; within two days
Protocol: In this example, a patient is admitted to a hospital with cough and fever (over 39.0° C.). About one month prior, they had presented with fever (over 39.0° C.), diarrhea and bloody bowel discharge. Upon admission, their hemoglobin was 8.9 g/dl and the serum C-reactive protein level was 6.8 mg/dl. […] Further, the patient tested positive for PR3-ANCA serological marker.
The treating physician administers a compound of Formula DCT-5A to the patient. The patient is administered the drug intravenously (i.e., 5 mcg/minute for 1 hour). The patient is administered a second dose after 24 hours. […] Thereafter, the patient is administered the drug orally (50 mg per day). The patient resumes the treatment and is periodically monitored for changes in their condition.

[4] = Treatment of Alpha-1 Antitrypsin Deficiency patient (Example 4); type: in vivo, human; conditions: orally 50 mg once per day; within two weeks
Text: In this example, a patient is diagnosed with AATD after presenting symptoms related to difficulty breathing and mild jaundice. […] The patient receives conventional therapy (e.g., bronchodilators, inhaled corticosteroids, pulmonary rehabilitation and supplemental oxygen). […] This treatment leads to some improvement, but the patient returns to the clinic seeking an alternative treatment.
The treating physician administers a compound of Formula DCT-5A to the patient: […]
The patient is administered the drug orally (i.e., 50 mg, once per day). Within two weeks, the signs/symptoms of AATD are resolved by about 80% and the patient appears in good health. The patient resumes the treatment and is periodically monitored for changes in their condition.

[5] = CF patients in an exacerbated state of inflammation; cited from earlier work
[6] = DSS-induced mouse model of UC; cited from earlier work

N=C(N)NCCC(CCCc1ccc(F)cc1)C(=O)NN1CN(CCCc2ccccc2)[C@H](Cc2ccc(O)cc2)C1=O (stereo partly shown) [DCT-5A]
signs/symptoms of AATD resolved [1]: about 90% | clinical course of the patient [2]: shows signs of improvement | clinical course of the patient [3]: shows signs of improvement | signs/symptoms of AATD resolved [4]: about 80%

A1PI: α1-proteinase inhibitor, a serpin; endogenous inhibitor of neutrophilic serine proteinases
effect on IL6, IL1β and NE activity [5]: decrease

elafin: polypeptide inhibitor of some peptidases and elastases; inhibits HNE, PR3 and pancreatic elastase (AQEPVKGPVSTKPGSCPIILIRCAMLNPPNRCLKDTDCPGIKKCCEGSCGMACFVPQ; ends and bridges not checked; cysteine pairing not given here; UniProt P19957 61-117, looked up)
reducing inflammation [6]: successful in reducing inflammation in a dose-dependent manner

B1: SLPI: locally produced chelonianin; inhibits HNE but not PR3 (protein, UniProt P03973 26-132, looked up)
Antileukoproteinase: SGKSFKAGVCPPKKSAQCLRYKKPECQSDWQCPGKKRCCPDTCGIKCLDPVDTPNPTRRKPGKCPVTYGQCLMLNPPNFCEMDGQCKRDLKCCMGMCGKSCVSPVKA
reducing inflammation [6]: also successful
